Results taken from paper PMC11303286, “In silico and in vitro chemometrics, cell toxicity and permeability of naringenin 8-sulphonate and derivatives” (Frontiers in Pharmacology, 2024).

How the values were obtained:
Caco-2 cells = conditions: ref Tian et al., 2009; cited from earlier work
[1] = MTT cell viability assay, HaCaT; type: cell-based, human; conditions: human, HaCaT keratinocyte cells, compared to control
Method: (§1) MRC-5 human lung fibroblast cells (Sigma-Aldrich, St. Louis, MO, United States) were cultured in MEM, while HaCaT human keratinocyte cells (ATCC, Manassas, VA, United States) and Caco-2 human intestinal epithelial cells (American Type Culture Collection, LGC Standards S.L.U., Spain) were cultured in DMEM. Both medium were supplemented with 10% of FBS and 1% of penicillin/streptomycin. Cells were incubated in 75 cm^2 cell culture flasks, which were placed in an incubator at 37°C, with a humidified atmosphere of 5% CO2. For the experiments, cells were seeded for 24 h in 96-well plates. MRC-5 and Caco-2 were seeded at 20,000 cells/well and HaCaT were seeded at 15,000 cells/well.
(§2) Toxicity of compounds, at 50 and 100 μM, was assessed against non-cancerous cell lines through the MTT assay after 24 h of incubation, following the protocol described in [Macedo et al., (2023)], with slight modifications. Thus, cells were exposed to MTT for 2 h, in the case of MRC-5, and 1 h 30 min, in the case of HaCaT. This assay was also performed to evaluate the response of Caco-2 cells to compounds at concentrations from 125 to 1,000 μM during the permeability assay, these cells being incubated for 4 h with the samples and exposed to MTT for 2 h. Results were expressed as percentage of viability compared to the control and correspond to the mean of, at least, three independent experiments performed in triplicate.

[2] = MTT cell viability assay, MRC-5; type: cell-based, human; conditions: human, MRC-5 lung fibroblast cells, MRC-5, 100 μM, compared to control
Method: as §1, §2

[3] = system: Caco-2 human intestinal epithelial cells; assay: MTT cell viability assay, Caco-2 (before permeability assay); type: cell-based; conditions: Caco-2, 4 h, concentrations until 1,000 μM
Method: as §1, §2
The ability of naringenin 8-sulphonate to cross biological barriers was tested using a Caco-2 permeability model. The first step for this assay was to test the possible impact of high concentrations of samples in Caco-2 cells during the time of the experiment. Thus, an MTT assay, using concentrations of naringenin, naringenin 4’-O-sulphate and naringenin 8-sulphonate until 1,000 μM, was performed.

[4] = Caco-2 permeability assay (Transwell); type: in vitro ADME, human; conditions: human; Caco-2 permeability model, 1,000 μM, 240 min time point; read-out: P app, experimental
Method: (§3) Caco-2 cells were seeded for 21 days at 112,000 cells/well in Corning® 3460 Transwell® 12 mm Polyester Membrane Inserts (Corning Incorporated, ME, United States). At every other day, culture medium was replaced and the transepithelial electrical resistance was measured to ensure values above 400 ohms until the day of the assay, to guarantee membrane integrity. For quality control purposes, Lucifer Yellow was used at 100 μg mL^-1 in the day of the assay. Briefly, one of the inserts was incubated with Lucifer Yellow during 1 h and, after that, its concentration was measured in the basolateral chamber, based on fluorescence intensity (λexc = 485 nm and λem = 535 nm). Lucifer Yellow passage, from the apical to the basolateral chamber equal or lower than 3% was considered indicative of a well-defined cell barrier phenotypically translated as good membrane integrity.
(§4) Treatments were applied in the transwells apical chamber and the basolateral chamber was filled with HBSS with calcium (1.26 mM) and magnesium (0.81 mM). At specific timepoints, namely 10, 20, 30, 60, 90, 120 and 180 min, half of the volume from the basolateral chamber was collected and replaced by the same volume of HBSS. In the last time point, at 240 min, content of both apical and basolateral compartments was collected to calculate the final mass balance. Transwells were maintained in agitation at 50 rpm, 37°C and 5% CO2 between the timepoints.
(§5) Concentration of each analyte in the different compartments was determined by HPLC-DAD using a Gilson Medical Electronics HPLC system (Villiers le Bel, France), with a Spherisorb ODS® (250 × 4.6 mm, 5 μm particle size, 100 Å pore size) column (PSS831915, Waters, Dublin, Ireland). Elution was performed for 7 min, with a flow rate of 900 μL min^-1. A mixture of methanol: water-formic acid (1%) was used as mobile phase, in a proportion of 65:35 for naringenin and 47:53 for naringenin 4’-O-sulphate and naringenin 8-sulphonate. Quantifications were performed at 285 nm.
(§6) Results were obtained from three independent experiments and each sample was analysed in triplicate. Apparent permeability (P app ) coefficient (cm s^-1) was calculated based on the equation P app = ΔQ/Δt×(1/(A×C0)), where ΔQ/Δt represents the amount of compound over time (mol s^-1), A is the monolayer area (cm^2) and C0 (mol mL^-1) is the initial drug concentration of the apical side ([Nait et al., 2009]; [Silva et al., 2020]).

Caco-2 cell monolayers = assay: Caco-2 permeability assay (Transwell); type: in vitro ADME, human; conditions: for P app, experimental: Caco-2 permeability model, 1,000 μM, 240 min time point; for percentage of the amount placed in the apical chamber found in the basolateral chamber: after 240 min, 1,000 μM, apical to basolateral; for P app class, experimental: classification ref Karakucuk et al., 2021
Method: as §3, §4, §5, §6

[5] = system: Caco-2 human intestinal epithelial cells; assay: Alkaline comet assay (DNA damage), Caco-2; conditions: for percentage of DNA in tail, first quartile / percentage of DNA in tail, third quartile / percentage of DNA in tail, median: Caco-2, 100 μM, 24 h; for percentage of DNA in tail, median: negative control 20.98; for genotoxicity: DNA fragmentation: Caco-2, alkaline comet assay, 100 μM
Method: Caco-2 cells were incubated for 24 h in 12 well plates at a density of 350,000 cells/well. After this, they were incubated with each sample and negative control for 24 h and collected using 500 μL of trypsin (0.25%)-ethylenediaminetetraacetic acid (EDTA) (0.038%), which was then inactivated with 1 mL of Hanks’ Balanced Salt Solution (HBSS). The cell suspension was centrifuged at 1,200 rpm during 8 min at room temperature, supernatant was discarded, and cells were resuspended in 100 μL of HBSS.
Electrophoresis was carried out to evaluate the extent of DNA fragmentation. For this, agarose-coated slides were prepared using an 1% agarose solution. A volume of 20 μL from the cell suspension was involved in 170 μL of 1% low gelling temperature agarose solution and applied to the slides, which were then placed at 4°C until solidification. Slides were submerged in a lysis solution (2.5 M NaCl, 0.1 M EDTA, 10 mM Tris-HCl, pH 10) with 1% Triton-X 100, at 4°C and sheltered from the light, for 105 min. After this, slides were submerged in the electrophoresis buffer (300 mM NaOH, 1 mM EDTA, pH 13) for 40 min. A Sub-Cell GT Horizontal Electrophoresis System 15 × 15 cm tray (Bio-Rad Laboratories Lda, Oeiras, Portugal) was used to run the electrophoresis at 25 V and 240 mA during 30 min in the dark. In the end of the electrophoresis, slides were submerged for three times in a neutralization solution (0.4 M Tris-HCl, pH 7.5), during 5 min each.
For the fluorescence microscopy analysis, DAPI was added for 15 min at 0.5 μg mL^-1, the slides being washed once with HBSS in the end. Images were acquired using a Nikon Eclipse Ts2R-FL inverted microscope with a Retiga R1 camera (01-RET-R1-RM) and CFI Plan Fluor ×10 DIC objective. DNA damage was calculated using the AutoComet algorithm ([Barbe et al., 2023]) by dividing the amount of fluorescence signal correspondent to the DNA content in the comet’s tail by the signal correspondent to the total DNA in the comet. MMS 500 μM, incubated for 30 min, was used as positive control for DNA fragmentation and consequent DNA tail formation.
Comet assay was performed to evaluate possible genotoxicity of compounds. […] The percentage of DNA in the tail may be used as a parameter to evaluate the damage on DNA ([Clementi et al., 2021]).

[6] = system: HaCaT human keratinocyte cells; assay: MTT cell viability assay, HaCaT; type: cell-based; conditions: 24 h, compared to control
Method: as §1, §2

[7] = system: MRC-5 human lung fibroblast cells; assay: MTT cell viability assay, MRC-5; type: cell-based; conditions: 24 h; for cell viability: compared to control
Method: as §1, §2

HT29 cells = system: HT29 cells; parameters: method as in Baranowska et al., 2021; conditions: concentrations up to 100 μM; ref Baranowska et al., 2021; cited from earlier work
MCF-7 = system: MCF-7; parameters: method as in Kocyigit et al., 2016; conditions: ref Kocyigit et al., 2016; cited from earlier work
HT-29 = system: HT-29; parameters: method as in Kocyigit et al., 2016; conditions: ref Kocyigit et al., 2016; cited from earlier work
PC-12 = system: PC-12; parameters: method as in Kocyigit et al., 2016; conditions: ref Kocyigit et al., 2016; cited from earlier work
L-929 = system: L-929; parameters: method as in Kocyigit et al., 2016; conditions: ref Kocyigit et al., 2016; cited from earlier work
[8] = system: human umbilical vein endothelial cells (HUVECs); parameters: method as in earlier work; conditions: ref Çeker et al., 2019; cited from earlier work

Papp A→B at 240 min, 1000 μM [4] [×10⁻⁶ cm/s] | P app, experimental (Caco-2 cell monolayers) [cm/s] | percentage of the amount placed in the apical chamber found in the basolateral chamber (Caco-2 cell monolayers) [%] | P app class, experimental (Caco-2 cell monolayers) | SMILES | reported P app (Caco-2 cells) [cm/s] | viability at 24 h, 50 µM [1] [%] | viability at 24 h, 100 µM [1] [%] | changes on cell viability [3] | percentage of DNA in tail, first quartile [5] [%] | percentage of DNA in tail, third quartile [5] [%] | percentage of DNA in tail, median [5] [%] | genotoxicity: DNA fragmentation [5] | also measured
– | – | – | – | O=c1c(O)c(-c2ccc(O)cc2O)oc2cc(O)cc(O)c12 [morin] | 6.2e-07 | – | – | – | – | – | – | – | –
– | – | – | – | O=c1c(O)c(-c2cc(O)c(O)c(O)c2)oc2cc(O)cc(O)c12 [myricetin] | 1.7e-06 | – | – | – | – | – | – | – | –
3.45 | 3.45e-06 | 12.73 | → (moderate P app) | O=C1C[C@@H](c2ccc(OS(=O)(=O)O)cc2)Oc2cc(O)cc(O)c21 [naringenin 4’-O-sulphate] | – | 95.4 | 89.2 | no significant changes on cell viability | 4.33 | 33.90 | 15.89 | did not | viability at 24 h, 100 µM [2]: 81.5%
– | 2.68e-06 | 10.41 | → (moderate P app) | O=C1C[C@@H](c2ccc(O)cc2)Oc2c1c(O)cc(O)c2S(=O)(=O)O [naringenin 8-sulphonate] | – | – | – | no significant changes on cell viability | 7.25 | 66.61 | 31.18 | caused significant DNA fragmentation | cell viability ([6]; 50 μM): 92.99%; cell viability ([6]; 100 μM): 91.95%; cell viability ([7]; MRC-5, 50 μM): 94.77%; cell viability ([7]; MRC-5, 100 μM): 94.71%
8.29 | 8.29e-06 | 32.01 | → (moderate P app) | O=C1C[C@@H](c2ccc(O)cc2)Oc2cc(O)cc(O)c21 [naringenin] | – | 93.2 | 91.9 | no significant changes on cell viability | 14.24 | 63.36 | 33.07 | caused significant DNA fragmentation | effect on cell viability ([7]; MRC-5, 50 and 100 μM): did not elicit any significant decrease; impact on DNA integrity (HT29 cells): no impact on DNA integrity; DNA damage (MCF-7): able to cause DNA damage; DNA damage (HT-29): able to cause DNA damage; DNA damage (PC-12): able to cause DNA damage; DNA damage (L-929): able to cause DNA damage; concentration causing the best antigenotoxic effects [8]: 8 µM; concentrations causing DNA damage [8]: ≥ 50 µM
